Measurements: patent US9637453B2, “3-spirocyclic-6-hydroxamic acid tetralins as HDAC inhibitors” (Forma Therapeutics, Inc., priority 2015, dated 2017)

Tests used:
[1] = target: T1, Full length human recombinant HDAC6 (Homo sapiens, UniProt Q9UBN7); assay: In vitro histone deacetylase assay, enzymatic HDAC6 (electrophoretic mobility shift assay); type: biochemical; conditions: 1 nM HDAC6; 2 μM peptide substrate FAM-RHKK(Ac)—NH2; 25° C.; 12 concentrations; read-out: HDAC6 Activity Range (IC50)
T1 construct: Full length human recombinant HDAC6 and HDAC11 proteins were expressed in baculoviral system
T1 sequence (Q9UBN7 1-1215): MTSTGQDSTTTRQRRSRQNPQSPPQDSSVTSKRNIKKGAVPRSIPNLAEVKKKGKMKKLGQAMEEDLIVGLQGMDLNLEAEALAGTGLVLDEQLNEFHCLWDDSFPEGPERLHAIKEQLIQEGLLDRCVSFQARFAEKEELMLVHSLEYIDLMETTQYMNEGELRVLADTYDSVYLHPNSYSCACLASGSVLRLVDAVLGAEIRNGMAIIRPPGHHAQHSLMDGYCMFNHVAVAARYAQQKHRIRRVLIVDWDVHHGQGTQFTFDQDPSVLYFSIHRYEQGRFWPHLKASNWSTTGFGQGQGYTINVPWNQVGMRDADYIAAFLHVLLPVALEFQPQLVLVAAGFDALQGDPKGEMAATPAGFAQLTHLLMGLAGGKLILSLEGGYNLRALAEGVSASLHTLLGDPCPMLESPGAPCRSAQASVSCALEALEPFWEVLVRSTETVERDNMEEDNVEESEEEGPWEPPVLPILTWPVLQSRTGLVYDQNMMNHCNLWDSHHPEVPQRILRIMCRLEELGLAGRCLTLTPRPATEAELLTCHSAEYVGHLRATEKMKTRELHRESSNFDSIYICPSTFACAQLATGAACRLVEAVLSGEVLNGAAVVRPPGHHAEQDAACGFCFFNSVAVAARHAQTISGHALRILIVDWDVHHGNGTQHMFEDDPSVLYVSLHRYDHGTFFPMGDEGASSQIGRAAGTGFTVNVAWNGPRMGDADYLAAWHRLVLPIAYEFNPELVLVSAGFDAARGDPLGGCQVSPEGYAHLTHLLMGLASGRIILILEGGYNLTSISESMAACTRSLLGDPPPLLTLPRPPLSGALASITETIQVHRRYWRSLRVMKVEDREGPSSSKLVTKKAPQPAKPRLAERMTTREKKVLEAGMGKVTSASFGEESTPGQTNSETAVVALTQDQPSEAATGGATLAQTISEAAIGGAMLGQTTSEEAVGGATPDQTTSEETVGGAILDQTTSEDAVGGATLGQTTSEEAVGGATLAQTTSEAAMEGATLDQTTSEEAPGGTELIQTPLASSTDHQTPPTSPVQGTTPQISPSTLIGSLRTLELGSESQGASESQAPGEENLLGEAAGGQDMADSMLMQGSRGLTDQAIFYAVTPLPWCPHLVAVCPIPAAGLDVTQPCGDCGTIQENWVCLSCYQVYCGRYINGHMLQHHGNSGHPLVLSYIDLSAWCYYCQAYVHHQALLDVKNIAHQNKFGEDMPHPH
In short: (§1)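 Baculovirus-expressed full-length enzymes (HDAC6 1 nM, FAM-RHKK(Ac)-NH2; HDAC11 10 nM, FAM-RHKK(tri-fluor-Ac)-NH2), 2 μM substrate, HEPES pH 7.5, 25°C, 12-point 3× dilutions. Product/substrate separated by microfluidic mobility shift after SDS quench; IC50 from 4-parameter fit, reported as +/++/+++ bins.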

[2] = target: T2, Full length human recombinant HDAC11 (Homo sapiens, UniProt Q96DB2); assay: In vitro histone deacetylase assay, enzymatic HDAC11 (electrophoretic mobility shift assay); type: biochemical; conditions: 10 nM HDAC11; 2 μM peptide substrate FAM-RHKK(tri-fluor-Ac)—NH2; 25° C.; 12 concentrations; read-out: HDAC11 Activity Range (IC50)
T2 construct: Full length human recombinant HDAC6 and HDAC11 proteins were expressed in baculoviral system
T2 sequence (Q96DB2 1-347): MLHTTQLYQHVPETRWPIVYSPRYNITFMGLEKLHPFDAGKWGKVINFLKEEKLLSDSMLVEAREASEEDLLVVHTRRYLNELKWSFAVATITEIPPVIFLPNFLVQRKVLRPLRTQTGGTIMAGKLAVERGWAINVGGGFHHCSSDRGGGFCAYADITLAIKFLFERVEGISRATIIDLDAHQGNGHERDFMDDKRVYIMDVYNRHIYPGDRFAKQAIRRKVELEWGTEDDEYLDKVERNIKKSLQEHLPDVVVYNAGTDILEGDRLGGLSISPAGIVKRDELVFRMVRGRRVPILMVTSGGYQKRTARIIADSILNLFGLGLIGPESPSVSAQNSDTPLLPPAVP
In short: as §1

SMILES | IC50 [1] [nM] | IC50 [2] [nM]
O=CN1CCC2(CCc3ccc(C(=O)NO)cc3C2)C1 (stereo not drawn) [Compound I-10, 1′-formyl-N-hydroxy-3,4-dihydro-1H-spiro[naphthalene-2,3′-pyrrolidine]-7-carboxamide] | ≤ 100 | > 500
O=C(NO)c1ccc2c(c1)C[C@]1(CC2)CC(=O)N(CC2CCC2)C1 [Compound I-133, (R)-1′-(cyclobutylmethyl)-N-hydroxy-5′-oxo-3,4-dihydro-1H-spiro[naphthalene-2,3′-pyrrolidine]-7-carboxamide] | ≤ 100 | > 500
CC(C)N1C[C@]2(CCc3ccc(C(=O)NO)cc3C2)CC1=O [Compound I-140, (S)—N-hydroxy-1′-isopropyl-5′-oxo-3,4-dihydro-1H-spiro[naphthalene-2,3′-pyrrolidine]-7-carboxamide] | ≤ 100 | > 500
O=C(NO)c1ccc2c(c1)C[C@@]1(CC2)CC(=O)N(CC2CCC2)C1 [Compound I-134, (S)-1′-(cyclobutylmethyl)-N-hydroxy-5′-oxo-3,4-dihydro-1H-spiro[naphthalene-2,3′-pyrrolidine]-7-carboxamide] | ≤ 100 | > 500
O=C(NO)c1ccc2c(c1)C[C@@]1(CC2)CCN(c2ccccc2)C1 [Compound I-16, (S)—N-hydroxy-1′-phenyl-3,4-dihydro-1H-spiro[naphthalene-2,3′-pyrrolidine]-7-carboxamide] | ≤ 100 | > 500
CCCN1CC[C@]2(CCc3ccc(C(=O)NO)cc3C2)C1=O [Compound I-79, (R)—N-hydroxy-2′-oxo-1′-propyl-3,4-dihydro-1H-spiro[naphthalene-2,3′-pyrrolidine]-7-carboxamide] | ≤ 100 | > 500
O=C(NO)c1ccc2c(c1)C[C@@]1(CC2)CCN(Cc2cccc(Cl)c2)C1=O [Compound I-74, (S)-1′-(3-chlorobenzyl)-N-hydroxy-2′-oxo-3,4-dihydro-1H-spiro[naphthalene-2,3′-pyrrolidine]-7-carboxamide] | ≤ 100 | > 500
O=C(NO)c1ccc2c(c1)C[C@@]1(CC2)CCN(Cc2ccc(Cl)cc2)C1=O [Compound I-37, (S)-1′-(4-chlorobenzyl)-N-hydroxy-2′-oxo-3,4-dihydro-1H-spiro[naphthalene-2,3′-pyrrolidine]-7-carboxamide] | ≤ 100 | ≤ 100
CN1CCC2(CCc3ccc(C(=O)NO)cc3C2)C1 (stereo not drawn) [Compound I-9, N-hydroxy-1′-methyl-3,4-dihydro-1H-spiro[naphthalene-2,3′-pyrrolidine]-7-carboxamide] | 100 to 500 | > 500
COc1cccc(CN2CC[C@]3(CCc4ccc(C(=O)NO)cc4C3)C2=O)c1 [Compound I-96, (R)—N-hydroxy-1′-(3-methoxybenzyl)-2′-oxo-3,4-dihydro-1H-spiro[naphthalene-2,3′-pyrrolidine]-7-carboxamide] | ≤ 100 | 100 to 500
O=C(NO)c1ccc2c(c1)C[C@]1(CC2)CCN(c2nc3ccccc3[nH]2)C1=O [Compound I-32, (R)-1′-(1H-benzo[d]imidazol-2-yl)-N-hydroxy-2′-oxo-3,4-dihydro-1H-spiro[naphthalene-2,3′-pyrrolidine]-7-carboxamide] | ≤ 100 | > 500
O=C(NO)c1ccc2c(c1)C[C@@]1(CC2)CCN(Cc2ccccn2)C1=O [Compound I-71, (S)—N-hydroxy-2′-oxo-1′-(pyridin-2-ylmethyl)-3,4-dihydro-1H-spiro[naphthalene-2,3′-pyrrolidine]-7-carboxamide] | ≤ 100 | > 500
O=C(NO)c1ccc2c(c1)C[C@]1(CC2)CCN(c2cccnc2)C1=O [Compound I-29, (R)—N-hydroxy-2′-oxo-1′-(pyridin-3-yl)-3,4-dihydro-1H-spiro[naphthalene-2,3′-pyrrolidine]-7-carboxamide] | ≤ 100 | > 500
COc1ccccc1CN1CCC2(CCc3ccc(C(=O)NO)cc3C2)C1 (stereo not drawn) [Compound I-15, N-hydroxy-1′-(2-methoxybenzyl)-3,4-dihydro-1H-spiro[naphthalene-2,3′-pyrrolidine]-7-carboxamide] | ≤ 100 | > 500
COCCCN1C[C@]2(CCc3ccc(C(=O)NO)cc3C2)CC1=O [Compound I-136, (S)—N-hydroxy-1′-(3-methoxypropyl)-5′-oxo-3,4-dihydro-1H-spiro[naphthalene-2,3′-pyrrolidine]-7-carboxamide] | ≤ 100 | > 500
O=C(NO)c1ccc2c(c1)C[C@@]1(CC2)CCN(CC2CCC2)C1=O [Compound I-53, (S)-1′-(cyclobutylmethyl)-N-hydroxy-2′-oxo-3,4-dihydro-1H-spiro[naphthalene-2,3′-pyrrolidine]-7-carboxamide] | ≤ 100 | > 500
CC(=O)N1CCC2(CCc3ccc(C(=O)NO)cc3C2)C1 (stereo not drawn) [Compound I-12, 1′-acetyl-N-hydroxy-3,4-dihydro-1H-spiro[naphthalene-2,3′-pyrrolidine]-7-carboxamide] | ≤ 100 | > 500
O=C(NO)c1ccc2c(c1)C[C@]1(CC2)CCN(Cc2ccc3nonc3c2)C1=O [Compound I-91, (R)-1′-(benzo[c][1,2,5]oxadiazol-5-ylmethyl)-N-hydroxy-2′-oxo-3,4-dihydro-1H-spiro[naphthalene-2,3′-pyrrolidine]-7-carboxamide] | ≤ 100 | ≤ 100
O=C(NO)c1ccc2c(c1)C[C@@]1(CC2)CC(=O)N(CC2COC2)C1 [Compound I-147, (S)—N-hydroxy-1′-(oxetan-3-ylmethyl)-5′-oxo-3,4-dihydro-1H-spiro[naphthalene-2,3′-pyrrolidine]-7-carboxamide] | ≤ 100 | > 500
CN1C[C@@]2(CCc3ccc(C(=O)NO)cc3C2)CC1=O [Compound I-130, (R)—N-hydroxy-1′-methyl-5′-oxo-3,4-dihydro-1H-spiro[naphthalene-2,3′-pyrrolidine]-7-carboxamide] | ≤ 100 | > 500
CN1CC[C@@]2(CCc3ccc(C(=O)NO)cc3C2)C1 [Compound I-18, (S)—N-hydroxy-1′-methyl-3,4-dihydro-1H-spiro[naphthalene-2,3′-pyrrolidine]-7-carboxamide] | 100 to 500 | > 500
CC(C)N1CCC2(CCc3ccc(C(=O)NO)cc3C2)C1=O (stereo not drawn) [Compound I-24, N-hydroxy-1′-isopropyl-2′-oxo-3,4-dihydro-1H-spiro[naphthalene-2, 3′-pyrrolidine]-7-carboxamide] | 100 to 500 | > 500
O=C(NO)c1ccc2c(c1)C[C@]1(CC2)CCN(C/C=C/c2ccccc2)C1=O [Compound I-86, (R)-1′-cinnamyl-N-hydroxy-2′-oxo-3,4-dihydro-H-spiro[naphthalene-2,3′-pyrrolidine]-7-carboxamide] | ≤ 100 | ≤ 100
Cc1ccccc1CN1CC[C@]2(CCc3ccc(C(=O)NO)cc3C2)C1=O [Compound I-87, (R)—N-hydroxy-1′-(2-methylbenzyl)-2′-oxo-3,4-dihydro-1H-spiro[naphthalene-2,3′-pyrrolidine]-7-carboxamide] | ≤ 100 | ≤ 100
